Active and inactive are the calls of the source. The rule behind the calls is not given here.
System: not listed separately
Assay: Cytotoxicity against human QSG7701 cells after 72 hrs by MTT assay
Assay type: cell-based
Settings: not given

Row | Compound | CC50 at 72 h
1 | OC(CN1CCN(C(c2ccccc2)c2ccccc2)CC1)c1ccc(Br)cc1 (stereo not given) | 2000 µM
2 | Cc1cc(N2CCOCC2)cc2[nH]c(-c3c(NC[C@@H](O)c4cccc(Cl)c4)cc[nH]c3=O)nc12 | 32000 µM
3 | OC(CN1CCN(c2cccc(C(F)(F)F)c2)CC1)c1ccc(Br)cc1 (stereo not given) | 6600 µM
4 | OC(CN1CCN(c2ccccc2)CC1)c1ccc(Br)cc1 (stereo not given) | 250 µM
5 | O=[N+]([O-])c1ccc(N2CCN(CC(O)c3ccc(Br)cc3)CC2)cc1 (stereo not given) | 1600 µM

Target: Insulin-like growth factor 1 receptor (Homo sapiens, UniProt P08069)
Sequence (P08069 31-736 limits assumed): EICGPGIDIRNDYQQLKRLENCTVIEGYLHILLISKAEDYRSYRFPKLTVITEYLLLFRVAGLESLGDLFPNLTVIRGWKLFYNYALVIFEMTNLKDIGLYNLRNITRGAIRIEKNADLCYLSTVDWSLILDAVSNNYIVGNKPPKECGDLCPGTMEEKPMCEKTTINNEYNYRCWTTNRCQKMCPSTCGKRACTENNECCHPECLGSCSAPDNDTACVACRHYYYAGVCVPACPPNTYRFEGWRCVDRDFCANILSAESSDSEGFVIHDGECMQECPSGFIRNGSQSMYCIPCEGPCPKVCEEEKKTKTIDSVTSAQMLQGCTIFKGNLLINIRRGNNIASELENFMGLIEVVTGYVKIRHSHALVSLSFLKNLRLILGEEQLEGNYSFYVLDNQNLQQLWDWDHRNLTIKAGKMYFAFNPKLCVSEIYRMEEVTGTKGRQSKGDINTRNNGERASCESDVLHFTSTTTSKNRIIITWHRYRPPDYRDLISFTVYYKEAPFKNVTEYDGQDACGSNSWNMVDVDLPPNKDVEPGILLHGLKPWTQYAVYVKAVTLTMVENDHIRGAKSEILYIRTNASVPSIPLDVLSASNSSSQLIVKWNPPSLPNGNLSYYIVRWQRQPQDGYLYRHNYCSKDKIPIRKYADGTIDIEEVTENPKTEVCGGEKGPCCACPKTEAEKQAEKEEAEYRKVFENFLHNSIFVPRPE
Sequence (P08069 741-1367 limits assumed): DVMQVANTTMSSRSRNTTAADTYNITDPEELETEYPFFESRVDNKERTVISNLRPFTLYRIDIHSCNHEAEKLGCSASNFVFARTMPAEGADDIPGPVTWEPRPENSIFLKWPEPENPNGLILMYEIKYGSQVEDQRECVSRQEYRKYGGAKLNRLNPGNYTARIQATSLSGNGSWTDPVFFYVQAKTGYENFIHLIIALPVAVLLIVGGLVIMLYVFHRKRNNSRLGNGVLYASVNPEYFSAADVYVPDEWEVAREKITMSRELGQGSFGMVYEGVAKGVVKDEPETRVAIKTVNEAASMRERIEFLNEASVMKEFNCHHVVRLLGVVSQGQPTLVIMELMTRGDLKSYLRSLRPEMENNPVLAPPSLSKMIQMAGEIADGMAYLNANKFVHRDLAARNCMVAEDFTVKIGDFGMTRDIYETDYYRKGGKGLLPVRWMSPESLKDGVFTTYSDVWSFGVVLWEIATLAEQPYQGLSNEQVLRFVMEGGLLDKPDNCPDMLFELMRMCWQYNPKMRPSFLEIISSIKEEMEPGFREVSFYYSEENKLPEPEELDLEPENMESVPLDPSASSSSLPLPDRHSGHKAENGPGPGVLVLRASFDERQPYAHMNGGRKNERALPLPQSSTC
Assay: Inhibition of NH2-terminal glutathione S-transferase fused human recombinant IGF-IR catalytic domain expressed in insect cells using poly(Glu:Tyr) substrate by ELISA-based assay
Settings: not given

Row | Compound | IC50
6 | OC(CN1CCN(C(c2ccccc2)c2ccccc2)CC1)c1ccc(Br)cc1 (stereo not given) | 0.034 µM
7 | OC(CN1CCN(Cc2ccccc2)CC1)c1ccc(Br)cc1 (stereo not given) | 0.568 µM

System: not listed separately
Assay: cells
Settings: Homo sapiens, LS174T, 48 h
Description: Antiproliferative activity against human LS 174T cells after 48 hrs by MTT assay

Row | Compound | IC50
8 | OC(CN1CCN(c2cccc(Cl)c2Cl)CC1)c1ccc(Br)cc1 (stereo not given) | 1.92 µM
9 | COc1cccc(N2CCN(CC(O)c3ccc(Br)cc3)CC2)c1 (stereo not given) | 2.06 µM
10 | OC(CN1CCN(c2ccccc2F)CC1)c1ccc(Br)cc1 (stereo not given) | 5.34 µM
11 | OC(CN1CCN(c2ccc(F)cc2)CC1)c1ccc(Br)cc1 (stereo not given) | 4.61 µM
12 | OC(CN1CCN(C(c2ccc(F)cc2)c2ccc(F)cc2)CC1)c1ccc(Br)cc1 (stereo not given) | 0.068 µM
13 | OC(CN1CCN(C(c2ccccc2)c2ccccc2)CC1)c1ccc(Br)cc1 (stereo not given) | 0.111 µM
14 | OC(CN1CCN(c2ccc(Cl)c(Cl)c2)CC1)c1ccc(Br)cc1 (stereo not given) | 1.89 µM
15 | Cc1cc(N2CCOCC2)cc2[nH]c(-c3c(NC[C@@H](O)c4cccc(Cl)c4)cc[nH]c3=O)nc12 | 2.05 µM
16 | OC(CN1CCN(c2ccccn2)CC1)c1ccc(Br)cc1 (stereo not given) | 6.61 µM
17 | Cc1ccc(N2CCN(CC(O)c3ccc(Br)cc3)CC2)c(C)c1 (stereo not given) | 1.82 µM
18 | COc1ccc(N2CCN(CC(O)c3ccc(Br)cc3)CC2)cc1 (stereo not given) | 2.6 µM
19 | OC(CN1CCN(c2ccccc2Cl)CC1)c1ccc(Br)cc1 (stereo not given) | 2.54 µM
20 | OC(CN1CCN(c2cccc(C(F)(F)F)c2)CC1)c1ccc(Br)cc1 (stereo not given) | 0.963 µM
21 | OC(CN1CCN(c2ccccc2)CC1)c1ccc(Br)cc1 (stereo not given) | 8.99 µM
22 | COc1ccccc1N1CCN(CC(O)c2ccc(Br)cc2)CC1 (stereo not given) | 2.57 µM
23 | O=[N+]([O-])c1ccc(N2CCN(CC(O)c3ccc(Br)cc3)CC2)cc1 (stereo not given) | 2.18 µM
24 | OC(CN1CCN(c2cccc(Cl)c2)CC1)c1ccc(Br)cc1 (stereo not given) | 16.9 µM
25 | OC(CN1CCN(Cc2ccccc2)CC1)c1ccc(Br)cc1 (stereo not given) | 2.69 µM

System: MCF7
Assay: Induction of apoptosis in human MCF7 cells after 24 hrs by DNA ladder detection based method
Assay type: functional, cell-based
Settings: not given

Row | Compound | Activity
26 | OC(CN1CCN(C(c2ccc(F)cc2)c2ccc(F)cc2)CC1)c1ccc(Br)cc1 (stereo not given) | Active

System: not listed separately
Assay: Antiproliferative activity against human SGC7901 cells after 48 hrs by MTT assay
Settings: SGC-7901, 48 h

Row | Compound | IC50
27 | OC(CN1CCN(c2cccc(Cl)c2Cl)CC1)c1ccc(Br)cc1 (stereo not given) | 2.47 µM
28 | COc1cccc(N2CCN(CC(O)c3ccc(Br)cc3)CC2)c1 (stereo not given) | 3.29 µM
29 | OC(CN1CCN(c2ccccc2F)CC1)c1ccc(Br)cc1 (stereo not given) | 16 µM
30 | OC(CN1CCN(c2ccc(F)cc2)CC1)c1ccc(Br)cc1 (stereo not given) | 10.3 µM
31 | OC(CN1CCN(C(c2ccc(F)cc2)c2ccc(F)cc2)CC1)c1ccc(Br)cc1 (stereo not given) | 0.116 µM
32 | OC(CN1CCN(C(c2ccccc2)c2ccccc2)CC1)c1ccc(Br)cc1 (stereo not given) | 0.253 µM
33 | OC(CN1CCN(c2ccc(Cl)c(Cl)c2)CC1)c1ccc(Br)cc1 (stereo not given) | 2.14 µM
34 | Cc1cc(N2CCOCC2)cc2[nH]c(-c3c(NC[C@@H](O)c4cccc(Cl)c4)cc[nH]c3=O)nc12 | 2.89 µM
35 | OC(CN1CCN(c2ccccn2)CC1)c1ccc(Br)cc1 (stereo not given) | 5.7 µM
36 | Cc1ccc(N2CCN(CC(O)c3ccc(Br)cc3)CC2)c(C)c1 (stereo not given) | 1.39 µM
37 | COc1ccc(N2CCN(CC(O)c3ccc(Br)cc3)CC2)cc1 (stereo not given) | 3.46 µM
38 | OC(CN1CCN(c2ccccc2Cl)CC1)c1ccc(Br)cc1 (stereo not given) | 4.62 µM
39 | OC(CN1CCN(c2cccc(C(F)(F)F)c2)CC1)c1ccc(Br)cc1 (stereo not given) | 2.08 µM
40 | OC(CN1CCN(c2ccccc2)CC1)c1ccc(Br)cc1 (stereo not given) | 9.28 µM
41 | COc1ccccc1N1CCN(CC(O)c2ccc(Br)cc2)CC1 (stereo not given) | 4.15 µM
42 | O=[N+]([O-])c1ccc(N2CCN(CC(O)c3ccc(Br)cc3)CC2)cc1 (stereo not given) | 1.84 µM
43 | OC(CN1CCN(c2cccc(Cl)c2)CC1)c1ccc(Br)cc1 (stereo not given) | 22.3 µM
44 | OC(CN1CCN(Cc2ccccc2)CC1)c1ccc(Br)cc1 (stereo not given) | 3.76 µM

System: not listed separately
Assay: Antiproliferative activity against human SMMC7721 cells after 48 hrs by MTT assay
Settings: SMMC-7721, 48 h

Row | Compound | IC50
45 | OC(CN1CCN(c2cccc(Cl)c2Cl)CC1)c1ccc(Br)cc1 (stereo not given) | 2.04 µM
46 | COc1cccc(N2CCN(CC(O)c3ccc(Br)cc3)CC2)c1 (stereo not given) | 2.91 µM
47 | OC(CN1CCN(c2ccccc2F)CC1)c1ccc(Br)cc1 (stereo not given) | 9.63 µM
48 | OC(CN1CCN(c2ccc(F)cc2)CC1)c1ccc(Br)cc1 (stereo not given) | 8.16 µM
49 | OC(CN1CCN(C(c2ccc(F)cc2)c2ccc(F)cc2)CC1)c1ccc(Br)cc1 (stereo not given) | 0.15 µM
50 | OC(CN1CCN(C(c2ccccc2)c2ccccc2)CC1)c1ccc(Br)cc1 (stereo not given) | 0.135 µM
51 | OC(CN1CCN(c2ccc(Cl)c(Cl)c2)CC1)c1ccc(Br)cc1 (stereo not given) | 1.68 µM
52 | Cc1cc(N2CCOCC2)cc2[nH]c(-c3c(NC[C@@H](O)c4cccc(Cl)c4)cc[nH]c3=O)nc12 | 2.56 µM
53 | OC(CN1CCN(c2ccccn2)CC1)c1ccc(Br)cc1 (stereo not given) | 6.12 µM
54 | Cc1ccc(N2CCN(CC(O)c3ccc(Br)cc3)CC2)c(C)c1 (stereo not given) | 1.48 µM
55 | COc1ccc(N2CCN(CC(O)c3ccc(Br)cc3)CC2)cc1 (stereo not given) | 2.82 µM
56 | OC(CN1CCN(c2ccccc2Cl)CC1)c1ccc(Br)cc1 (stereo not given) | 3.92 µM
57 | OC(CN1CCN(c2cccc(C(F)(F)F)c2)CC1)c1ccc(Br)cc1 (stereo not given) | 1.2 µM
58 | OC(CN1CCN(c2ccccc2)CC1)c1ccc(Br)cc1 (stereo not given) | 7.64 µM
59 | COc1ccccc1N1CCN(CC(O)c2ccc(Br)cc2)CC1 (stereo not given) | 2.28 µM
60 | O=[N+]([O-])c1ccc(N2CCN(CC(O)c3ccc(Br)cc3)CC2)cc1 (stereo not given) | 1.53 µM
61 | OC(CN1CCN(c2cccc(Cl)c2)CC1)c1ccc(Br)cc1 (stereo not given) | 7.83 µM
62 | OC(CN1CCN(Cc2ccccc2)CC1)c1ccc(Br)cc1 (stereo not given) | 3.54 µM

System: MCF7
Assay: cells
Settings: Homo sapiens, MCF7, 48 h

Row | Compound | IC50
63 | OC(CN1CCN(c2cccc(Cl)c2Cl)CC1)c1ccc(Br)cc1 (stereo not given) | 1.06 µM
64 | COc1cccc(N2CCN(CC(O)c3ccc(Br)cc3)CC2)c1 (stereo not given) | 1.44 µM
65 | OC(CN1CCN(c2ccccc2F)CC1)c1ccc(Br)cc1 (stereo not given) | 16.4 µM
66 | OC(CN1CCN(c2ccc(F)cc2)CC1)c1ccc(Br)cc1 (stereo not given) | 11.5 µM
67 | OC(CN1CCN(C(c2ccc(F)cc2)c2ccc(F)cc2)CC1)c1ccc(Br)cc1 (stereo not given) | 0.024 µM
68 | OC(CN1CCN(C(c2ccccc2)c2ccccc2)CC1)c1ccc(Br)cc1 (stereo not given) | 0.037 µM
69 | OC(CN1CCN(c2ccc(Cl)c(Cl)c2)CC1)c1ccc(Br)cc1 (stereo not given) | 0.777 µM
70 | Cc1cc(N2CCOCC2)cc2[nH]c(-c3c(NC[C@@H](O)c4cccc(Cl)c4)cc[nH]c3=O)nc12 | 1.75 µM
71 | OC(CN1CCN(c2ccccn2)CC1)c1ccc(Br)cc1 (stereo not given) | 3.41 µM
72 | Cc1ccc(N2CCN(CC(O)c3ccc(Br)cc3)CC2)c(C)c1 (stereo not given) | 0.863 µM
73 | COc1ccc(N2CCN(CC(O)c3ccc(Br)cc3)CC2)cc1 (stereo not given) | 1.34 µM
74 | OC(CN1CCN(c2ccccc2Cl)CC1)c1ccc(Br)cc1 (stereo not given) | 2.46 µM
75 | OC(CN1CCN(c2cccc(C(F)(F)F)c2)CC1)c1ccc(Br)cc1 (stereo not given) | 0.86 µM
76 | OC(CN1CCN(c2ccccc2)CC1)c1ccc(Br)cc1 (stereo not given) | 5.71 µM
77 | COc1ccccc1N1CCN(CC(O)c2ccc(Br)cc2)CC1 (stereo not given) | 1.22 µM
78 | O=[N+]([O-])c1ccc(N2CCN(CC(O)c3ccc(Br)cc3)CC2)cc1 (stereo not given) | 1.31 µM
79 | OC(CN1CCN(c2cccc(Cl)c2)CC1)c1ccc(Br)cc1 (stereo not given) | 10.4 µM
80 | OC(CN1CCN(Cc2ccccc2)CC1)c1ccc(Br)cc1 (stereo not given) | 2.88 µM
